Data published in the NIST ThermoML archive (doi:10.1021/je049610v).
Several values for one entry are separate records, joined by “and”; a condition that tells them apart may be missing. Identical values can stand only once. ± gives the expanded uncertainty stated by the source.

Tests used:
[1] = refractive index (Na D-line) (dimensionless); details: 101.33 kPa, Liquid
[2] = 101 kPa, Liquid

Row | SMILES | refractive index ([1]; 298.15 K) | mass density ([2]; 298.15 K) [kg/m3] | speed of sound ([2]; 298.15 K) [m/s] | viscosity ([2]; 298.15 K) [mPa·s] | mass density ([2]; 303.15 K) [kg/m3] | viscosity ([2]; 303.15 K) | mass density ([2]; 308.15 K) [kg/m3] | viscosity ([2]; 308.15 K) [mPa·s] | refractive index ([1]; 303.15 K) | refractive index ([1]; 308.15 K)
1 | C[S+](C)[O-] [dimethyl sulfoxide] | 1.4768 ± 0.0064 | 1095.4 ± 2.3 | 1493 ± 8 | 1.984 ± 0.06 | 1090.8 ± 2.3 | 1.801 ± 0.055 mPa·s | 1086.2 ± 2.4 | 1.651 ± 0.05 |  | 
2 | C1COCCO1 [1,4-dioxane] | 1.4181 ± 0.0024 | 1028.3 ± 2.1 | 1345 ± 7 | 1.415 ± 0.044 | 1023.1 ± 2.2 | 1.171 ± 0.1 mPa·s | 1017.8 ± 2.2 | 1.068 ± 0.034 | 1.4176 ± 0.0024 | 1.4141 ± 0.0024
3 | OCCCl [1-chloro-2-hydroxyethane] | 1.4411 ± 0.0024 | 1200.9 ± 2.5 | 1358 ± 8 | 3.104 ± 0.091 | 1192.5 ± 2.6 | 2.669 ± 0.079 mPa·s | 1187.1 ± 2.7 | 2.347 ± 0.07 | 1.438 ± 0.0024 | 1.4326 ± 0.0024
4 | CN(C)C=O [dimethylformamide] | 1.4288 ± 0.0024 | 943.9 ± 4 | 1462 ± 8 | 0.801 ± 0.026 | 939.5 ± 4.1 | 0.754 ± 0.025 mPa·s | 935 ± 4.1 | 0.711 ± 0.024 | 1.4264 ± 0.0024 | 1.4238 ± 0.0024
5 | CCOC(=O)C(=O)OCC [diethyl ethanedioate] | 1.4084 ± 0.0024 | 1072.3 ± 2.2 | 1267 ± 7 | 1.844 ± 0.056 | 1066.6 ± 2.3 | 1.659 ± 0.051 mPa·s | 1060.7 ± 2.4 | 1.508 ± 0.046 | 1.4061 ± 0.0024 | 1.4039 ± 0.0024
6 | ClC(Cl)C(Cl)Cl [1,1,2,2-tetrachloroethane] | 1.4922 ± 0.0024 | 1587.8 ± 3.5 | 1153 ± 7 | 1.591 ± 0.049 | 1580.6 ± 3.6 | 1.471 ± 0.045 mPa·s | 1573.3 ± 3.6 | 1.361 ± 0.042 | 1.4894 ± 0.0024 | 1.4865 ± 0.0024
7 | COc1ccccc1 [anisole] | 1.5148 ± 0.0024 | 988.9 ± 2 | 1410 ± 8 | 0.992 ± 0.032 | 984.1 ± 2.1 | 0.919 ± 0.03 mPa·s and 0.918 ± 0.03 mPa·s | 979.4 ± 2.1 | 0.853 ± 0.028 | 1.5124 ± 0.0024 | 1.5092 ± 0.0024
8 | ClC(Cl)=C(Cl)Cl [tetrachloroethene] | 1.5036 ± 0.0024 | 1614.7 ± 3.5 | 1038 ± 6 | 0.861 ± 0.028 | 1606.9 ± 3.6 | 0.817 ± 0.027 mPa·s | 1599 ± 3.6 | 0.782 ± 0.026 | 1.501 ± 0.0024 | 1.498 ± 0.0024
